Experimental data from patent US20050282745A1, “Non-mammalian GnRH analogs and uses thereof in regulation of fertility and pregnancy” (priority 2001, published 2005).
One block for each molecule: values may come before it. Non-standard residues stand in square brackets, D forms with d. Residues, ends and D or L forms follow the SMILES beside them. *: point of attachment. dPhe(4-Cl) = N[C@H](Cc1ccc(Cl)cc1)C(=O)O; d2Nal = N[C@H](Cc1ccc2ccccc2c1)C(=O)O; Lys(iPr) = CC(C)NCCCC[C@H](N)C(=O)O; d3Pal = N[C@H](Cc1cccnc1)C(=O)O; pGlu = O=C1CC[C@@H](C(=O)O)N1; Nicotinoyl = O=C(c1cccnc1)*

What was measured:
[1] = test system: chorionic peptidase-1 (C-ase-1)
[2] = test system: chorionic peptidase-1 (C-ase-1); experiment: C-ase-1 enzyme activity assay, competition for degradation of GnRH; conditions: for relative potency of inhibition of C-ase-1 degradation of GnRH, compared to GnRH: Example V; for Ki: competition for degradation of mammalian GnRH
[3] = test system: pregnant baboons; experiment: Pregnant baboons, mini-pump days 14-21 post ovulation; assay type: in vivo, baboon
Experimental: Mammalian GnRH analogs, ZOLADEX™ (Goserelin acetate) and Organon 30276, were administered to pregnant baboons via mini-pump on days 14 through 21 post ovulation. The hormonal release and pregnancy outcome was compared to saline treated controls. […] In a dose-response saline-controlled study using very high doses of mammalian GnRH analog, a small stimulation of hCG in very early pregnancy was observed by the present inventor.

[4] = test system: human placental GnRH receptor; experiment: Placental GnRH receptor binding, 125I-Buserelin label; conditions: for receptor activity/potency compared with GnRH: 125I-Buserelin, Example VI
Experimental: The newly synthesized non-mammalian GnRH analogs and other commercially available mammalian GnRH analogs were used in placental receptors binding and enzyme stability study described here. […] GnRH receptors were purified from the membrane fractions from placentas. The purification procedure for the placental GnRH receptor was performed using a modification of the method described by Bramley et al., which reference is specifically incorporated herein by reference for the purpose. Addition of enzyme inhibitors for the endogenous C-ase-1 were used as well as agents for receptor stabilization. Initially, receptor-binding assays using ^125I-Buserelin as label were performed. The competitive binding of each of the analogs was studied over a dose range of 10^−11 to 10^−6 M. Incubation was at room temperature and receptor bound label was precipitated with polyethylene glycol. Specific and non-specific binding was determined. The data was subjected to Scatchard analysis. The non-mammalian GnRH analogs' ability to bind to the placental GnRH receptor was compared to that for synthetic mammalian GnRH (SEQ ID NO: 5), Buserelin (SEQ ID NO: 10) and other mammalian analogs. […] This way, the receptor affinity for that analog could be precisely determined. Receptors from three different term placentas were used to study each of these analogs. […] Bramley T A, McPhie C A, Menzies G S 1994 Human placental gonadotropin-releasing hormone (GnRH) binding sites: 111. […] Placenta 15:733-745.
In these and additional studies, placental GnRH receptors were purified from human term placentas after homogenization in 40 mM Tris (pH 7.4) and filtered through cheesecloth, followed by an initial centrifugation at 1,000×g for 10 minutes. The resulting supernatant was, again, centrifuged at 35,000×g for 30 minutes and the membrane pellet was collected and resuspended in Tris buffer with 0.3 M sucrose. The protein concentration was determined. Membranes were stored frozen at −20 C until use. Before use, placental membranes were diluted to 5,000 μg/mL with Tris buffer containing 0.5% BSA and 50 U/mL bacitracin. […] Following incubation at room temperature for 4 hours, the bound and free hormones were separated using polyethylene glycol precipitation, followed by centrifugation. The binding affinity for each GnRH isoform or analog was calculated using the double reciprocal plot of bound versus free ligand. Each study was done using three different human term placental tissues.
Receptor assays were performed by incubating human term placental GnRH receptors with varying concentrations of GnRH or its analogs in the presence of ^125I-Buserelin. The reaction was stopped and the bound hormone precipitated with polyethylene glycol.

[5] = test system: placental homogenate; experiment: Degradation in whole placental homogenate; assay type: in vitro ADME, human
Experimental: Studies using whole placental homogenate were also performed. […] The competition by the newly synthesized non-mammalian GnRH analogs as compared to mammalian GnRH (SEQ ID NO: 5) was then studied to confirm the C-ase-1 studies above. […] (FIG. 3)
The stability of these analogs in the present of whole placental homogenates was examined. The ethylamide derivative has a slowed degradation rate as compared to GnRH, but can be degraded.

Molecule: CC(=O)N[C@H](Cc1ccc2ccccc2c1)C(=O)N[C@H](Cc1ccc(Cl)cc1)C(=O)N[C@H](Cc1cccnc1)C(=O)N[C@@H](CO)C(=O)N[C@@H](CCCCNC(=O)c1cccnc1)C(=O)N[C@H](CCCCNC(=O)c1cccnc1)C(=O)N[C@@H](CC(C)C)C(=O)N[C@@H](CCCCNC(C)C)C(=O)N1CCC[C@H]1C(=O)N[C@H](C)C(N)=O [Antide] (Ac-[d2Nal][dPhe(4-Cl)][d3Pal]SK(Nicotinoyl)[dK](Nicotinoyl)L[Lys(iPr)]P[dA]-NH2; N-terminus and C-terminus assumed)
degradation by / competition for C-ase-1, in words [1]: degraded with reduced activity | relative potency of inhibition of C-ase-1 degradation of GnRH, compared to GnRH [2]: 0.6 | potency as competitor compared with salmon or chicken II GnRHs ([2]; Example VII): two-fold more potent | potency as competitor for GnRH degradation by C-ase-1 compared with GnRH ([2]; Example VII): three-fold less potent

Molecule: CCNC(=O)[C@@H]1CCCN1C(=O)[C@H](Cc1ccc(O)cc1)NC(=O)[C@H](Cc1c[nH]c2ccccc12)NC(=O)[C@@H](CCCNC(=N)N)NC(=O)[C@H](Cc1c[nH]cn1)NC(=O)[C@H](CO)NC(=O)[C@H](Cc1c[nH]c2ccccc12)NC(=O)[C@H](Cc1c[nH]cn1)NC(=O)[C@@H]1CCC(=O)N1 [D-Arg-chicken II GnRH-ethylamide, D-Arg (6)-chicken II GnRH-des-Gly (10)-ethylamide] ([pGlu]HWSH[dR]WYP-NHEt)
Ki ([2]; Example III): > 200 nM

Molecule: CCNC(=O)[C@@H]1CCCN1C(=O)[C@H](CCCNC(=N)N)NC(=O)[C@H](CC(C)C)NC(=O)[C@@H](CC(C)C)NC(=O)[C@H](Cc1ccc(O)cc1)NC(=O)[C@H](CO)NC(=O)[C@H](Cc1c[nH]c2ccccc12)NC(=O)[C@H](Cc1c[nH]cn1)NC(=O)[C@@H]1CCC(=O)N1 [MAMMALIAN D-LEU (6), EA (10), des-Gly^10, D-Leu^6-GnRH-ethylamide]
degradation by / competition for C-ase-1, in words [1]: potent competitive inhibitors

Molecule: CC(C)C[C@H](NC(=O)[C@@H](COC(C)(C)C)NC(=O)[C@H](Cc1ccc(O)cc1)NC(=O)[C@H](CO)NC(=O)[C@H](Cc1c[nH]c2ccccc12)NC(=O)[C@H](Cc1cnc[nH]1)NC(=O)[C@@H]1CCC(=O)N1)C(=O)N[C@@H](CCCNC(=N)N)C(=O)N1CCC[C@H]1C(=O)NNC(N)=O [ZOLADEX, Goserelin acetate]
abortions ([3]; in vivo): not consistently effected | pregnancy outcome ([3]; in vivo): in most animals pregnancy outcomes were jeopardized | CG and progesterone ([3]; vs saline controls): decreased

Molecule: CCNC(=O)[C@@H]1CCCN1C(=O)[C@H](CCCNC(=N)N)NC(=O)[C@H](CC(C)C)NC(=O)[C@@H](Cc1c[nH]c2ccccc12)NC(=O)[C@H](Cc1ccc(O)cc1)NC(=O)[C@H](CO)NC(=O)[C@H](Cc1c[nH]c2ccccc12)NC(=O)[C@H](Cc1c[nH]cn1)NC(=O)[C@@H]1CCC(=O)N1 [^6D-Trp-GnRH-^10 ethylamide]
receptor activity/potency compared with GnRH [4]: twice as active

Molecule: CCNC(=O)[C@@H]1CCCN1C(=O)[C@H](CCCNC(=N)N)NC(=O)[C@H](CC(C)C)NC(=O)[C@@H](Cc1cn(Cc2ccccc2)cn1)NC(=O)[C@H](Cc1ccc(O)cc1)NC(=O)[C@H](CO)NC(=O)[C@H](Cc1c[nH]c2ccccc12)NC(=O)[C@H](Cc1cnc[nH]1)NC(=O)[C@@H]1CCC(=O)N1 [^6Im-btl-D-His-GnRH^10 ethylamide, des-Gly^10-Im-Btl-D-His^6-GnRH-ethylamide]
receptor activity/potency compared with GnRH [4]: half the potency | receptor activity/potency compared with GnRH ([4]; listed as 6Im-btl-D-His-GnRH-^10 ethylamide): half the potency | receptor activity/potency compared with GnRH ([4]; listed as Im-Btl-His(6) analog): reduced receptor potency | degradation by / competition for C-ase-1, in words [1]: resistant to degradation

Molecule: CCNC(=O)[C@@H]1CCCN1C(=O)[C@H](Cc1ccc(O)cc1)NC(=O)[C@H](Cc1c[nH]c2ccccc12)NC(=O)CNC(=O)[C@H](Cc1c[nH]cn1)NC(=O)[C@H](CO)NC(=O)[C@H](Cc1c[nH]c2ccccc12)NC(=O)[C@H](Cc1c[nH]cn1)NC(=O)[C@@H]1CCC(=O)N1 [chicken II GnRH ethylamide, chicken II GnRH-^10 ethylamide] ([pGlu]HWSHGWYP-NHEt)
receptor activity/potency compared with GnRH [4]: 33 fold | stability in whole placental homogenates [5]: more stable than the mammalian GnRH analogs

Molecule: ^9OH-Pro-GnRH
relative potency of inhibition of C-ase-1 degradation of GnRH, compared to GnRH [2]: 1.5 | potency as competitor for GnRH degradation by C-ase-1 compared with GnRH ([2]; Example VII): as or even more potent than GnRH

Second part, led by results:

receptor binding potency compared with chicken II GnRH isoform or Buserelin ([4]; Buserelin label, Example II): equipotent to Buserelin | receptor binding potency compared with mammalian GnRH ([4]; Buserelin label, Example II): three-fold more potent | degradation/competition relative to mammalian GnRH ([2]; Example III): one-sixth | relative potency of inhibition of C-ase-1 degradation of GnRH, compared to GnRH [2]: 0.2 | Ki ([2]; Example III): 200 nM
Molecule: NC(=O)CNC(=O)[C@@H]1CCCN1C(=O)[C@H](Cc1ccc(O)cc1)NC(=O)[C@H](Cc1c[nH]c2ccccc12)NC(=O)CNC(=O)[C@H](Cc1c[nH]cn1)NC(=O)[C@H](CO)NC(=O)[C@H](Cc1c[nH]c2ccccc12)NC(=O)[C@H](Cc1c[nH]cn1)NC(=O)[C@@H]1CCC(=O)N1 [chicken II GnRH] ([pGlu]HWSHGWYPG-NH2; C-terminus assumed)
stability in whole placental homogenates [5]: more stable than the mammalian GnRH analogs

degradation by / competition for C-ase-1, in words [1]: potent competitive inhibitors
Molecule: CCNC(=O)[C@@H]1CCCN1C(=O)[C@H](CCCNC(=N)N)NC(=O)[C@H](CC(C)C)NC(=O)CNC(=O)[C@H](Cc1ccc(O)cc1)NC(=O)[C@H](CO)NC(=O)[C@H](Cc1c[nH]c2ccccc12)NC(=O)[C@H](Cc1c[nH]cn1)NC(=O)[C@@H]1CCC(=O)N1 [des-Gly^10-GnRH-ethylamide] ([pGlu]HWSYGLRP-NHEt)

relative potency of inhibition of C-ase-1 degradation of GnRH, compared to GnRH [2]: 1.5 | potency as competitor for GnRH degradation by C-ase-1 compared with GnRH ([2]; Example VII): as or even more potent than GnRH
Molecule: CC(C)C[C@H](NC(=O)[C@H](CO)NC(=O)[C@H](Cc1ccc(O)cc1)NC(=O)[C@H](Cc1c[nH]cn1)NC(=O)[C@@H]1CCC(=O)N1)C(=O)N[C@@H](CCC(=O)O)C(=O)N[C@@H](Cc1c[nH]c2ccccc12)C(=O)N[C@@H](CCCCN)C(=O)N1CCC[C@H]1C(=O)NCC(N)=O [lamprey GnRH] ([pGlu]HYSLEWKPG-NH2)

relative potency of inhibition of C-ase-1 degradation of GnRH, compared to GnRH [2]: 0.2
Molecule: CC(C)C[C@H](NC(=O)[C@H](Cc1c[nH]c2ccccc12)NC(=O)CNC(=O)[C@H](Cc1ccc(O)cc1)NC(=O)[C@H](CO)NC(=O)[C@H](Cc1c[nH]c2ccccc12)NC(=O)[C@H](Cc1c[nH]cn1)NC(=O)[C@@H]1CCC(=O)N1)C(=O)N1CCC[C@H]1C(=O)NCC(N)=O [salmon GnRH] ([pGlu]HWSYGWLPG-NH2)

degradation by / competition for C-ase-1, in words [1]: resistant to degradation
Molecule: chicken II GnRH-^10 aza-Gly-amide
